# Reference: paper doi:10.1101/2025.09.05.674519v1 (biorxiv, 2025)
# Counter-ions that a name gives are not always drawn.
# Assays:
# NanoLuc-ULK2 (NanoBRET) [1] = biological target: T1, NanoLuc-ULK2 (NanoBRET) (Homo sapiens, UniProt Q8IYT8); test: NanoBRET tracer displacement in live HEK293T cells; type: cell-based
# T1 sequence (Q8IYT8 1-1036): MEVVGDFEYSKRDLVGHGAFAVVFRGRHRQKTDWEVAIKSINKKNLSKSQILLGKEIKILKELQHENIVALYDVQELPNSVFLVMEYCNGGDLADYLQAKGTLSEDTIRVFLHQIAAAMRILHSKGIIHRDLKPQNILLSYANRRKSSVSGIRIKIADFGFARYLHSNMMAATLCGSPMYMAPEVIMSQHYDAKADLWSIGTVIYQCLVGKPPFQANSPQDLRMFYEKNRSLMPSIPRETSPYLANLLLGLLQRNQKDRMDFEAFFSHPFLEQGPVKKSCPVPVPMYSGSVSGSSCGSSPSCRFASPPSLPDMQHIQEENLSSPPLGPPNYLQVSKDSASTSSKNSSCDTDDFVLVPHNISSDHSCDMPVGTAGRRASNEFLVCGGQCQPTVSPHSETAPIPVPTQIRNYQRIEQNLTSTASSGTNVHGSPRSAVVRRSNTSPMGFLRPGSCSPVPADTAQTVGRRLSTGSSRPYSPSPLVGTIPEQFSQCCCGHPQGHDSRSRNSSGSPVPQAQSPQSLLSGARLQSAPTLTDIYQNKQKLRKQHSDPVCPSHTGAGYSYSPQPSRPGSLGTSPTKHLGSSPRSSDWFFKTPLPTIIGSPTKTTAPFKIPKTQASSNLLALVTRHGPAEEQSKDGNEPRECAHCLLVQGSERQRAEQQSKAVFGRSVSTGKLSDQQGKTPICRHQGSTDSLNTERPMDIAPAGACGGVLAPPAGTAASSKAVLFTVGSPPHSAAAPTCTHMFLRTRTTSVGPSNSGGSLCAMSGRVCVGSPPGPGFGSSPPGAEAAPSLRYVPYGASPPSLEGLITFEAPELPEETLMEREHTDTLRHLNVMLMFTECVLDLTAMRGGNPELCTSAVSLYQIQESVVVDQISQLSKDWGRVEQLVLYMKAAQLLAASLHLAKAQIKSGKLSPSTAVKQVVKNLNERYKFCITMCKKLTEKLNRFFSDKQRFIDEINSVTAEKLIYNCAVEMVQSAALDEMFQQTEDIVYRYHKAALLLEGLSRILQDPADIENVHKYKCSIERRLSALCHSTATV
# [2] = biological target: T2, ULK2 (recombinant human ULK2 protein 1-478, ADP-Glo) (Homo sapiens, UniProt Q8IYT8); test: ADP-Glo kinase assay; type: biochemical
# T2 sequence (Q8IYT8 1-478): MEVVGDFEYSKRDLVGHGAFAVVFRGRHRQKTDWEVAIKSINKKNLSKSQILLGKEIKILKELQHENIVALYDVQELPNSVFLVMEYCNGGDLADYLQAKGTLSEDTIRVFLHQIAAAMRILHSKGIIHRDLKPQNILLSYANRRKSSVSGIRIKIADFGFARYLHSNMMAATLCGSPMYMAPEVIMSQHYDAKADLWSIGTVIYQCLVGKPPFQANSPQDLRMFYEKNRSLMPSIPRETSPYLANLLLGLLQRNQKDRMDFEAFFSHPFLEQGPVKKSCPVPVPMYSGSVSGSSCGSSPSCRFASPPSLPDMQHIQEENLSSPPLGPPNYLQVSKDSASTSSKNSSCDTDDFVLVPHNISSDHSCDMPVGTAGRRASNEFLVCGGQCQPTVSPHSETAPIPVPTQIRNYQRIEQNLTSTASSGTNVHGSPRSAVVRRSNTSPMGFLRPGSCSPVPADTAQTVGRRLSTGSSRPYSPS
# [3] = biological target: T2, ULK2 (recombinant human ULK2 protein 1-478, ADP-Glo); test: biochemical
# NanoLuc-ULK2 (NanoBRET) [4] = biological target: T1, NanoLuc-ULK2 (NanoBRET); test: cell-based; set-up: species or system HEK293T
# [5] = biological target: T3, ULK2 kinase domain (1-276) (Homo sapiens, UniProt Q8IYT8); test: biochemical; details: read-out: ULK2 PTS (ºC)
# T3 sequence (Q8IYT8 1-276): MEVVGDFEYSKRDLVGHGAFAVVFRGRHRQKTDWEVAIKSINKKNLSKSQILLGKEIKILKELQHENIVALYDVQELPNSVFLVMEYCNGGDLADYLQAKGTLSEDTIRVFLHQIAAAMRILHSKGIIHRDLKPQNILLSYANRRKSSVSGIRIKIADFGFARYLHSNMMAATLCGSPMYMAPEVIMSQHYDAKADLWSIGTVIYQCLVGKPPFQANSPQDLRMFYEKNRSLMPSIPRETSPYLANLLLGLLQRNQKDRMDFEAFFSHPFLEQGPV
# [6] = biological target: T4, ULK1 (recombinant human ULK1 protein 1-649, ADP-Glo) (Homo sapiens, UniProt O75385); test: ADP-Glo kinase assay; type: biochemical
# T4 sequence (O75385 1-649): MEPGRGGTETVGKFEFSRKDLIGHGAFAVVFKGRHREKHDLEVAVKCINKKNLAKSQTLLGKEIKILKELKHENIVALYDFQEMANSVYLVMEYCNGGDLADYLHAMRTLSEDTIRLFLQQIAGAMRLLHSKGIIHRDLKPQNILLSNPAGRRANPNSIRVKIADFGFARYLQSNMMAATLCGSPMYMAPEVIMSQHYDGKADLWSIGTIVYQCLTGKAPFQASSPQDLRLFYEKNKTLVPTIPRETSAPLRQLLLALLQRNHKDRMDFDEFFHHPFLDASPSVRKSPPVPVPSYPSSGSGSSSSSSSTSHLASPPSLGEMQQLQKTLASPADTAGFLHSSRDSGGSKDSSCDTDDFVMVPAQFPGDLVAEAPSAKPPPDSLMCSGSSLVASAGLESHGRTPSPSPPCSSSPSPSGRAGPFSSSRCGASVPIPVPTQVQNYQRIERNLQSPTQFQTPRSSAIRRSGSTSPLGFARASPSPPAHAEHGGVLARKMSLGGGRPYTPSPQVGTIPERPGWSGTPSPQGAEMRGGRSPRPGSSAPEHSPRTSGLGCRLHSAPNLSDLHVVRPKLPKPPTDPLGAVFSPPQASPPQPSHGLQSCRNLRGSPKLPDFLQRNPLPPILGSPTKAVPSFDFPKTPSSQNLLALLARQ
# NanoLuc-ULK1 (NanoBRET) = biological target: T5, NanoLuc-ULK1 (NanoBRET) (Homo sapiens, UniProt O75385); test: NanoBRET tracer displacement in live HEK293T cells; type: cell-based
# T5 sequence (O75385 1-1050): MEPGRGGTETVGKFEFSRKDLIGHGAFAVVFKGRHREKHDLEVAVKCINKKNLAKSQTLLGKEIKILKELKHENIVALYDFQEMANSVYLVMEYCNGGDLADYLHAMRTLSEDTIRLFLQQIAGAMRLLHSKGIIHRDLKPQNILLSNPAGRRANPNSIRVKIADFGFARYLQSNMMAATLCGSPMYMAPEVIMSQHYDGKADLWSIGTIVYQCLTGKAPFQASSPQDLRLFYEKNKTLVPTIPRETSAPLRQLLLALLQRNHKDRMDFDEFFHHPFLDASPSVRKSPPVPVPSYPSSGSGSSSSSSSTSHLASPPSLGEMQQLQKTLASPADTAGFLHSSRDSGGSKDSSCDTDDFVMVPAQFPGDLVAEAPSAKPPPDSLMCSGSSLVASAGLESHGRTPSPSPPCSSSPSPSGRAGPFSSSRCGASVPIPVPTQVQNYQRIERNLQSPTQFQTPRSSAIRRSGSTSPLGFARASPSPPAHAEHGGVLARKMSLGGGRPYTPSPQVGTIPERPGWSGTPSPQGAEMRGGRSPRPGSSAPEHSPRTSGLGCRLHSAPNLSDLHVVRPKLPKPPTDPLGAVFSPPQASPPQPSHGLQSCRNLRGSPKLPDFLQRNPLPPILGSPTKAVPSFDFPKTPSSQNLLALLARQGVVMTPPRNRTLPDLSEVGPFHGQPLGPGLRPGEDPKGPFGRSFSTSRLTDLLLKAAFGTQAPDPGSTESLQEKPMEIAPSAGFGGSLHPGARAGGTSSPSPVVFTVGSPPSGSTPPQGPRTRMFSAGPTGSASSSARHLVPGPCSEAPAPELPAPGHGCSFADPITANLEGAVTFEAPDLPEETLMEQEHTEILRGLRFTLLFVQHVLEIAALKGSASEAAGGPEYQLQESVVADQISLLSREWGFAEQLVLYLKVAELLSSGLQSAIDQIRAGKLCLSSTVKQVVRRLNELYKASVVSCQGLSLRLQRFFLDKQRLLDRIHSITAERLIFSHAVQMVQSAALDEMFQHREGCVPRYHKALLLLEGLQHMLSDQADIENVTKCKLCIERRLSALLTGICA
SMILES,IC50 (NanoLuc-ULK2 (NanoBRET) [1]) [µM],IC50 [2] [µM],IC50 [3] [µM],IC50 (NanoLuc-ULK2 (NanoBRET) [4]) [µM],ΔTm at 10 µM [5] [°C],IC50 [6] [µM],IC50 (NanoLuc-ULK1 (NanoBRET)) [µM]
COc1cc(Nc2ncc(C(F)(F)F)c(NC3CC3)n2)cc(OC)c1OC [compound 1],0.172 ± 0.033,0.064 ± 0.022,–,–,–,–,–
"O=C1CCc2cc(Nc3ncc(C(F)(F)F)c(NC4CC4)n3)ccc2N1 [compound 2, 6-((4-(Cyclopropylamine)-5-(trifluoromethyl)pyrimidine-2-yl)amino)-3,4-dihydroquinoline-2(1H)-one]",0.174,0.118 ± 0.034,–,–,–,–,–
"O=C1Cc2cc(Nc3ncc(C(F)(F)F)c(NC4CC4)n3)ccc2N1 [compound 3, 5-((4-(Cyclopropylamine)-5-(trifluoromethyl)pyrimidin-2-yl)amino)indolin-2-one]",–,–,0.704 ± 0.063,1.1 ± 0.454,3 ± 1.3,–,–
"COc1cc(Nc2ncc(Br)c(NC3CC3)n2)cc(OC)c1OC [compound 6, 5-Bromo-N4-cyclopropyl-N2-(3,4,5-trimethoxyphenyl)pyrimidine-2,4-diamine]",–,–,0.217 ± 0.108,1.47 ± 0.261,7 ± 0.7,–,–
"O=C1CCc2cc(Nc3ncc(Br)c(NC4CC4)n3)ccc2N1 [compound 7, 6-((5-Bromo-4-(cyclopropylamine)pyrimidin-2-yl)amino)-3,4-dihydroquinolin-2(1H)-one]",–,–,0.896 ± 0.092,1.58 ± 0.325,2 ± 0.8,–,–
"O=C1CCc2cc(Nc3nccc(NC4CC4)n3)ccc2N1 [compound 8, 8]",–,–,–,–,–,2.33 ± 0.667,> 10
"O=C1CCc2cc(Nc3ncc(C(F)(F)F)c(NC4CCCC4)n3)ccc2N1 [compound 12, 6-((4-(Cyclopentylamine)-5-(trifluoromethyl)pyrimidin-2-yl)amino)-3,4-dihydroquinolin-2(1H)-one]",–,–,–,–,–,0.025 ± 0.006,> 10
"O=C1CCc2cc(Nc3ncc(C(F)(F)F)c(NCC(F)(F)F)n3)ccc2N1 [compound 14, 6-((4-((2,2,2-Trifluoroethyl)amino)-5-(trifluoromethyl)pyrimidin-2-yl)amino)-3,4 dihydroquinolin-2(1H)-one]",–,–,0.464 ± 0.09,1.82 ± 0.599,4 ± 0.1,–,–
"O=C1CCc2cc(Nc3ncc(C(F)(F)F)c(NCCO)n3)ccc2N1 [compound 15, 6-((4-((2-Hydroxyethyl)amino)-5-(trifluoromethyl)pyrimidin-2-yl)amino)-3,4-dihydroquinolin-2(1H)-one]",–,–,0.98 ± 0.062,0.875 ± 0.131,8 ± 0.1,–,–
"NCCCNc1nc(Nc2ccc3c(c2)CCC(=O)N3)ncc1C(F)(F)F [compound 19, 6-((4-((3-Aminopropyl)amino)-5-(trifluoromethyl)pyrimidin-2-yl)amino)-3,4 dihydroquinolin-2(1H)-one·HCl]",–,–,0.48 ± 0.065,0.077 ± 0.013,7.5,–,–
"O=C1CCc2cc(Nc3ncc(C(F)(F)F)c(NCCCNC(=O)C4CC4)n3)ccc2N1 [compound 21, N-(3-((2-((2-Oxo-1,2,3,4-tetrahydroquinolin-6-yl)amino)-5-(trifluoromethyl)pyrimidin-4-yl)amino)propyl)cyclopropanecarboxamide]",0.044 ± 0.01,0.05 ± 0.012,–,–,8 ± 0.6,–,–
